# Assay results as given in article PMC6259308, “Preparation and Properties of New Co-Crystals of Ibandronate with Gluco- or Galactopyranoside Derivatives” (Molecules, 2010).
# What was measured:
# [1] = In vitro screening of absorption (PAMPA experiments); assay type: in vitro ADME
# Procedure: The permeability of ibandronate (as a control sample) and samples 1-3, 6 and 7 was tested. To retain interactions of both components in the solution it is recommended to increase the concentration of the counterion in the applied mixture. Therefore samples 1-3, 6 and 7 with the addition of sixfold quantity of phenyl-β-D-galactopyranoside to the co-crystal solution were also evaluated.
# The permeability of generated co-crystals was evaluated in vitro, using a vertical PAMPA (Parallel Artificial Membrane Permeability Assay) system (BD GentestTMPre-Coated PAMPA Plate System, 96 wells, http://www.bdbeurope.com). The donor samples were prepared by dissolving the tested potential co-crystals in 0.01 M HCl, and than pH was adjusted by bicarbonate buffer to pH 7.4. The control sample was prepared in the same manner from ibandronate standards. A carbonate buffer saline (physiological solution) with pH 7.4 was used as a receptor phase. About 0.5 h before the experiment the PAMPA system was taken out from the freezer and warmed up to the ambient temperature. The receptor phase (200 μL/well) was pipetted into the upper wells. The donor phase was pipetted into the lower ones (300 μL/well). After the incubation time (5 h) 10 μL of the acceptor phase was taken from each well and mixed with physiological solution (990 μL). At least five determinations were performed. […]
# [2] = cited from earlier work
compound,measurement,setting,value
"CCCCCN(C)CCC(O)(P(=O)([O-])O)P(=O)(O)O.[Na+] [IBN monosodium salt, sodium hydrogen {1-hydroxy-3-[methyl(pentyl)amino]-1-phosphonopropyl}phosphonate]","Absorption in PAMPA (in words, relative to ibandronate control)","[1]; PAMPA, pH 7.4, 5 h",highest absorption
same,"Concentration in acceptor solutions of PAMPA plates, Conc.","[1]; donor and receptor phase pH 7.4, incubation 5 h, calculated from 5 experiments, samples 1a-7a with sixfold quantity of phenyl-β-D-galactopyranoside added to the co-crystal solution",2400 ng/mL
same,Solubility in organic solvents,[2]; organic solvents,practically insoluble
same,Solubility in water,[2]; water,freely soluble
